Test [1] deals with MAPKAP kinase II (MK2) (Homo sapiens, UniProt P49137). Put plainly: Omnia Lysate Assay for MAPKAP-K2: MK2 reaction velocity. Type of test: biochemical. Conditions: same assay conditions as Example 1. As to the method: Using the Omnia™ Lysate Assay for MAPKAP-K2 kit (Invitrogen, Carlsbad, Calif.), the reaction velocity for MK2 was determined in the presence and absence of each of the peptides listed in Table 2. Briefly, inhibitor peptide concentrations at 12.5 μmol, 25 μmol, 50 μmol and 100 μmol were evaluated. The kit contains a proprietary reaction buffer to which the following are added (final concentrations are given): 1 mM ATP, 0.2 mM DTT, 10 μM MAPKAP-K2 Sox-modified peptide substrate, 5 ng MK2, and the peptide inhibitor of interest (final volume of 50 μL). The reactions were performed in the wells of a low protein-binding 96-well plate provided with the kit, and fluorescence readings at 485 nm were taken every 30 seconds for 20 minutes in a Molecular Devices M5 Spectrophotometer. A peptide having the sequence […]
Sequence of MAPKAP kinase II (MK2) (P49137 whole entry, species assumed): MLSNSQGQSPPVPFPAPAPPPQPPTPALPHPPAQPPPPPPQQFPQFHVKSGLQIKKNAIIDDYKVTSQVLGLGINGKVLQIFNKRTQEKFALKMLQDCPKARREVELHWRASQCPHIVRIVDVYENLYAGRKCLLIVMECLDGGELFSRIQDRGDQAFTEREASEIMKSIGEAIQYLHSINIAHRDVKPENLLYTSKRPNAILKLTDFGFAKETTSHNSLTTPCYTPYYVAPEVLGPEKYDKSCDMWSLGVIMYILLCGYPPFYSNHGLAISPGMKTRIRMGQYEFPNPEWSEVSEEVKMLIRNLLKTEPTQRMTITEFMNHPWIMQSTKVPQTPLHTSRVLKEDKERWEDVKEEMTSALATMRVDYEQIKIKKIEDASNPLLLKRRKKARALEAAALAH
The MK2 inhibition activity of […] [SEQ ID NO: 134] transduction domain was compared with the MK2 inhibition activity of other known transduction domains—[…] [SEQ ID NO: 135] and […] [SEQ ID NO: 190]. The transduction domains were tested for MK2 activity using the same assay conditions as Example 1.
A set of MK2 inhibitor peptides having transduction domains was synthesized (see Table 5). Variants included peptides with the […] [SEQ ID NO: 134] transduction domain and alanine substituted for asparagine, alanine substituted for glycine, or both alanine substitutions in the therapeutic domain. The same peptides with the […] [SEQ ID NO: 135] transduction domain also were prepared. The reaction velocities of these variants were compared to the reaction velocity of a blank with no inhibitor added.

Test [2] relates to Ca2+/calmodulin-dependent protein kinase II (CaMKII). Conditions: cited from earlier work.
Test [3] concerns PKA. The note with it: 1 μM AIP; cited from earlier work.
Test [4] has as its system PKC. The note with it: 1 μM AIP; cited from earlier work.
For test [5], the target named is T1, CaMKIV (Homo sapiens, UniProt Q16566).
T1 sequence (Q16566 1-473): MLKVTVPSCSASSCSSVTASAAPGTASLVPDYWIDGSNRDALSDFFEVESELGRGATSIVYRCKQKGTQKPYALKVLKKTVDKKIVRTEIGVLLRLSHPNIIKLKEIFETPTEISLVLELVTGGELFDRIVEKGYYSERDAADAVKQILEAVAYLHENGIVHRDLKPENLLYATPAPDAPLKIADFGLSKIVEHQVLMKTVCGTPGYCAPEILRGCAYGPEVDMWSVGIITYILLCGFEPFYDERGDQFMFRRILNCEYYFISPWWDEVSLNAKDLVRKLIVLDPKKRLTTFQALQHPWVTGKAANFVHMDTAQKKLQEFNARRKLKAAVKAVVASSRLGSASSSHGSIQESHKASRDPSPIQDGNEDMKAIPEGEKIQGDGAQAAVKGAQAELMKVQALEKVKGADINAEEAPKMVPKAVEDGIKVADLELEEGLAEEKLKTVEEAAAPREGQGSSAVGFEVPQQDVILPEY
The note with it: 1 μM AIP; cited from earlier work.

Test [6] has as its system AMPK (r). Put plainly: kinase profiler assay (radiometric). It counts as biochemical, rat. Conditions: @ = 100 μm peptide; less than 100 = kinase inhibition, greater than 100 = stimulation. The source says: KIP peptides […] [SEQ ID NO: 142], […] [SEQ ID NO: 173], and […] [SEQ ID NO: 163] were utilized to profile a variety of different kinases. The kinase profiler assay services provided by Upstate, a part of Millipore Corporation (Billerica, Mass.), were utilized to conduct the kinase profiles. The kinase profiler assays, which are radiometric, are based on measuring the amount of radioactive transfer from an ATP (y-^33P-ATP) to a substrate peptide using known concentrations of kinase enzyme, inhibitor, ATP, and buffer at defined time points and temperatures. Details on the reaction conditions for each kinase are available at www.millipore.com/drugdiscovery/dd3/KinaseProfiler. […] ROCK-1(h) (5-10 mU) was incubated with 8 mM MOPS pH 7.0, 0.2 mM EDTA, 30 i.IM of the peptide […] [SEQ ID NO: 189], 10 mM Mg acetate and y-^33P-ATP (specific activity approximately 500 cpm/pmol, concentration as required) in a final reaction volume of 25 pl. The reaction was initiated by the addition of the MgATP mixture in the absence and presence of inhibitor compounds. […] The filtermat was washed three times for 5 minutes in 75 mM phosphoric acid, once in methanol, dried and counted by scintillation counting. […] Scintillation counts (radioactivity) directly correlate with kinase activity. […]

The target in test [7] is T2, PKB β (h) (Homo sapiens, UniProt P31751).
T2 construct: purchased Upstate (Millipore) KinaseProfiler service
T2 sequence (P31751 whole entry): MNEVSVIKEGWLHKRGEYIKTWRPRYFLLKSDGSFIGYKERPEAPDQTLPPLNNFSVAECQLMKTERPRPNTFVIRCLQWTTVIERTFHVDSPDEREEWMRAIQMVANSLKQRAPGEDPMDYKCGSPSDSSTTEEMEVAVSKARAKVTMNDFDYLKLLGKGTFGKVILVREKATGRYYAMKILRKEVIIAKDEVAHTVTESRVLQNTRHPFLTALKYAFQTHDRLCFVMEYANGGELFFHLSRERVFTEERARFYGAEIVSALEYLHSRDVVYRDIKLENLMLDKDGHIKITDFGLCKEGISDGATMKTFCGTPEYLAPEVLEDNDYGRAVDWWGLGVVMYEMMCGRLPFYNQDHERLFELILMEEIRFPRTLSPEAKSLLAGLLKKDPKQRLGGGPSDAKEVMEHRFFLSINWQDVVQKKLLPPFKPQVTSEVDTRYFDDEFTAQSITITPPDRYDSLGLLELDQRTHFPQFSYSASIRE
The test is described as follows: kinase profiler assay (radiometric). Conditions: read-out: Profile-1, PKB β (h). Type of test: biochemical. An excerpt: KIP peptides […] [SEQ ID NO: 142], […] [SEQ ID NO: 173], and […] [SEQ ID NO: 163] were utilized to profile a variety of different kinases. The kinase profiler assay services provided by Upstate, a part of Millipore Corporation (Billerica, Mass.), were utilized to conduct the kinase profiles. The kinase profiler assays, which are radiometric, are based on measuring the amount of radioactive transfer from an ATP (y-^33P-ATP) to a substrate peptide using known concentrations of kinase enzyme, inhibitor, ATP, and buffer at defined time points and temperatures. Details on the reaction conditions for each kinase are available at www.millipore.com/drugdiscovery/dd3/KinaseProfiler. […] ROCK-1(h) (5-10 mU) was incubated with 8 mM MOPS pH 7.0, 0.2 mM EDTA, 30 i.IM of the peptide […] [SEQ ID NO: 189], 10 mM Mg acetate and y-^33P-ATP (specific activity approximately 500 cpm/pmol, concentration as required) in a final reaction volume of 25 pl. The reaction was initiated by the addition of the MgATP mixture in the absence and presence of inhibitor compounds. After incubation for 40 minutes at room temperature, the reaction was stopped by the addition of 5) 11 of a 3% phosphoric acid solution. 10 pl of the reaction mixture then was spotted onto a P30 filtermat. The filtermat was washed three times for 5 minutes in 75 mM phosphoric acid, once in methanol, dried and counted by scintillation counting. Where the kinase is uninhibited, the kinase phosphorylates a positively charged substrate with radioactive ATP, which then binds to a negatively charged filter membrane. Scintillation counts (radioactivity) directly correlate with kinase activity. […] All profile data less than 100 indicate kinase inhibition while data greater than 100 indicate kinase stimulation.

In test [8] the test system is A549 lung cancer cells. The test is described as follows: Toxicity testing on cancer cell lines (MTT). Type of test: cell-based. Conditions: 72 hours, n=4, read-out: Cell Line IC50, A549. As to the method:
(§1) The seven cell lines were: estrogen dependent MCF-7 breast cancer cells, non estrogen dependent MDA 231 breast cancer cells, SF 539 central nervous system cancer cells, HT29 colon cancer cells, Paca 2 pancreatic cancer cells, PC3 prostate cancer cells, and A549 lung cancer cells. For each cell line, exponentially growing cells were trypsinized and seeded into individual wells of a 96-well plate. Cells were maintained in a humidified, 5% CO2 incubator at 37° C. for 24 hours. The next day, fresh media was added along with 1 μl of a stock solution of peptide to give final peptide concentrations of 0.3 μM, 1 μM, 3 μM, 10 μM, 30 μM, and 100 μM (n=4). Doxorubicin was tested as a positive control. After incubating the cells for 72 hours, to each well was added 20 μl of 0.5% MTT {3-([…])-2,5 diphenyl tetrazolium bromide} solution. The plates then were incubated for an additional 4 hours, at which time the absorbance at 570 nm was measured for each well using a microplate reader. The absorbance was plotted as function of peptide concentration, and IC50 values were calculated for each peptide for each cell line.

In test [9] the test system is HT29 colon cancer cells. Put plainly: Toxicity testing on cancer cell lines (MTT). Type of test: cell-based. Conditions: 72 hours, n=4, read-out: Cell Line IC50, HT29. As for the experimental part:
as §1

Test [10] relates to PC3 prostate cancer cells. Put plainly: Toxicity testing on cancer cell lines (MTT). Type of test: cell-based. The note with it: 72 hours, n=4, read-out: Cell Line IC50, PC3. As to the method:
as §1

Test [11] deals with Paca 2 pancreatic cancer cells. The test is described as follows: Toxicity testing on cancer cell lines (MTT). It counts as cell-based. The note with it: 72 hours, n=4, read-out: Cell Line IC50, Paca 2. As to the method:
as §1

The subject of test [12] is SF 539 central nervous system cancer cells. The test is described as follows: Toxicity testing on cancer cell lines (MTT). Type of test: cell-based. Conditions: 72 hours, n=4, read-out: Cell Line IC50, SF 539. As to the method:
as §1

Test [13] relates to estrogen dependent MCF-7 breast cancer cells. The test is described as follows: Toxicity testing on cancer cell lines (MTT). Conditions: 72 hours, n=4, read-out: Cell Line IC50, MCF-7. It counts as cell-based. As to the method:
as §1

Test [14] concerns non estrogen dependent MDA 231 breast cancer cells. The test is described as follows: Toxicity testing on cancer cell lines (MTT). It counts as cell-based. Conditions: 72 hours, n=4, read-out: Cell Line IC50, MDA 231. As to the method:
as §1

The source of these data is patent publication US8741849B2, “Kinase inhibitors and uses thereof” (priority 2007, dated 2014).

The term IC50 denotes the midpoint of a concentration-inhibition curve.

Where no end group is shown, it is not given here.

Regarding `CC[C@H](C)[C@H](NC(=O)[C@H](CCCNC(=N)N)NC(=O)[C@H](CCCNC(=N)N)NC(=O)[C@H](CC(C)C)NC(=O)[C@H](Cc1c[nH]c2ccccc12)NC(=O)[C@H](C)NC(=O)[C@H](CCCCN)NC(=O)[C@@H](NC(=O)[C@H](CCCNC(=N)N)NC(=O)[C@H](CCCNC(=N)N)NC(=O)[C@H](CC(C)C)NC(=O)[C@@H](N)Cc1c[nH]c2ccccc12)[C@@H](C)CC)C(=O)N[C@@H](CCCCN)C(=O)N[C@@H](C)C(=O)O`, the “MK2 inhibition (in words)” value in [1] is listed as “inhibited MK2 significantly more than KKKALNRQLGVAA”.

On to KKALRRQEAVDAL [AIP], for which, in test [2] (1 μM AIP), the CaMKII activity entry is “completely inhibited”. Besides, the IC50 in test [2] was 0.1 µM. Besides, in test [3], the PKA activity entry was “not affected”. Further, the PKC activity entry in test [4] is reported as “not affected”. In [5], the CaMKIV activity entry was “not affected”.

With `CC(C)C[C@H](NC(=O)[C@H](C)NC(=O)[C@H](CCCCN)NC(=O)[C@H](CCCNC(=N)N)NC(=O)[C@H](Cc1ccc(O)cc1)NC(=O)[C@H](CC(C)C)NC(=O)[C@H](CCCNC(=N)N)NC(=O)[C@H](C)NC(=O)[C@H](C)NC(=O)[C@H](CC(C)C)NC(=O)[C@H](CCCCN)NC(=O)[C@H](C)NC(=O)[C@@H](N)Cc1ccccc1)C(=O)N[C@@H](C)C(=O)N[C@@H](CCCNC(=N)N)C(=O)N[C@@H](CCC(N)=O)C(=O)N[C@@H](CC(C)C)C(=O)NCC(=O)N[C@H](C(=O)N[C@@H](C)C(=O)N[C@@H](C)C(=O)O)C(C)C`, in [6], the “Profile-1, AMPK (r)” value is on record as 101. In addition, the activity at 100 µM in test [7] turned out to be 16%.

WLRRIKAWLRRALNRQLGVAA [Peptide 4]: the half-maximal inhibitory concentration (IC50) was 12.5 µM in test [8]; 11.8 µM in test [9]; 23.7 µM in test [10]; 11.2 µM in [11]; 10 µM in [12]; 4.4 µM in [13]. Moreover, in [14], the half-maximal inhibitory concentration (IC50) came to 12 µM.

Turning to WLRRIKAHRRIKALARQLGVAA [Peptide 2], the IC50 in test [8] amounted to 31.9 µM; in test [9], 26.4 µM; in test [10], 28.9 µM; in test [11], 19.5 µM; in test [12], 26 µM; in test [13], 7.8 µM. Further, in [14], the IC50 came to 19.9 µM.

YARAAARQARA [reference compound]: in [1], the “MK2 inhibition (in words)” value is recorded as “also inhibit MK2 but not nearly as much as WLRRIKAWLRRIKA”.

With `CC(C)C[C@H](NC(=O)[C@H](C)NC(=O)[C@H](CCCCN)NC(=O)[C@H](CCCNC(=N)N)NC(=O)[C@H](Cc1ccc(O)cc1)NC(=O)[C@H](CC(C)C)NC(=O)[C@H](CCCNC(=N)N)NC(=O)[C@H](C)NC(=O)[C@H](C)NC(=O)[C@H](CC(C)C)NC(=O)[C@H](CCCCN)NC(=O)[C@H](C)NC(=O)[C@H](Cc1ccccc1)NC(=O)[C@H](C)NC(=O)[C@@H](N)CCCCN)C(=O)N[C@@H](C)C(=O)N[C@@H](CCCNC(=N)N)C(=O)N[C@@H](CCC(N)=O)C(=O)N[C@@H](CC(C)C)C(=O)NCC(=O)N[C@H](C(=O)N[C@@H](C)C(=O)N[C@@H](C)C(=O)O)C(C)C`, the “Profile-1, AMPK (r)” value in test [6] was 118. For the same compound, in test [7], the activity at 100 µM is 28%.

On to WLRRIKAWLRR [Peptide 3], for which the IC50 in test [8] stood at 34.3 µM; in [9], 20.7 µM; in test [10], 35.5 µM; in test [11], 42.5 µM; in [12] it was 22 µM; in test [13] it was 13.5 µM. In test [14], the IC50 amounted to 17.4 µM.

Regarding `N=C(N)NCCC[C@H](NC(=O)[C@H](CCCNC(=N)N)NC(=O)[C@H](CCCNC(=N)N)NC(=O)[C@H](CCC(N)=O)NC(=O)[C@H](CCCNC(=N)N)NC(=O)[C@H](CCCNC(=N)N)NC(=O)[C@H](CCCCN)NC(=O)[C@H](CCCCN)NC(=O)[C@H](CCCNC(=N)N)NC(=O)CNC(=O)[C@@H](N)Cc1ccc(O)cc1)C(=O)O` [reference compound], the “MK2 inhibition (in words)” value in test [1] is on record as “also inhibit MK2 but not nearly as much as WLRRIKAWLRRIKA”.

With WLRRIKA [WLRRIKA], the “MK2 inhibition (in words)” value in [1] is “same level of inhibition as the no inhibitor control”.
